Measurements taken from paper PMC12415202, “Specificities of chemosensory receptors in the human gut microbiota” (Proceedings of the National Academy of Sciences of the …, 2025).
Values belong to the compound of their own block, whether it stands above or below them.

Tests used:
Experiment in all cases: ITC
K1 LBD = target: T1, K1 LBD
T1 construct: source species and locus only in SI

C1 LBD = target: T2, C1 LBD
T2 construct: source species and locus only in SI
From the text: ITC on C1 LBD | The binding of L-lactate to the K1 and C1 LBDs

B9 LBD = target: T3, B9 LBD
T3 construct: source species and locus only in SI
From the text: ITC on B9 LBD | The binding of L-threonine to the B9 LBD

B6 LBD = target: T4, B6 LBD; design: species or system Catenibacterium mitsuokai
T4 construct: locus only in SI
From the text: ITC on B6 LBD | the binding of indole to the B6 LBD were confirmed by isothermal titration calorimetry

D8 LBD = target: T5, D8 LBD; settings: membrane-distal module
T5 construct: D8-dm = residues 33-179, D8-pm = residues 153-280; source species and locus only in SI

J6 LBD = target: T6, J6 LBD
T6 construct: source species and locus only in SI
From the text: ITC on J6 LBD | ethylamine and methylamine to the J6 LBD was confirmed by ITC

Structure (SMILES): C[C@@H](O)C(=O)O [D-lactate]
Kd (K1 LBD): 66.1 ± 10.7 µM

Structure (SMILES): C[C@H](O)C(=O)O [L-lactate]
Kd (K1 LBD): 16 ± 0.56 µM
Kd (C1 LBD): 26.8 ± 0.91 µM

Structure (SMILES): C=C(CC(=O)O)C(=O)O [itaconate]
Kd (D8 LBD): 9.6 ± 0.9 µM

Structure (SMILES): O=C(O)/C=C\C(=O)O [maleate]
Kd (D8 LBD): 7.7 ± 0.41 µM

Structure (SMILES): CN [methylamine]
Kd (J6 LBD): 242 ± 22 µM

Now from value to compound:

Kd (B9 LBD): 1300 ± 200 nM
Structure (SMILES): C[C@@H](O)[C@H](N)C(=O)O [L-threonine]

Kd (B6 LBD): 35.6 ± 7.02 µM
Structure (SMILES): c1ccc2[nH]ccc2c1 [indole]

Kd (D8 LBD): 1.7 ± 0.11 µM
Structure (SMILES): O=C(O)CCC(=O)O [succinate]
